Source: PMC4128571 (Drug testing and analysis, 2014)

Assays:
Assay type in all cases: biochemical
5-HT transporters (SERT) = 5-HT transporters (SERT) (Rattus norvegicus, UniProt P31652); details: for Efficacy to evoke release at SERT (of maximal release): rat brain synaptosomes
[1] = target: dopamine transporters (DAT) (Rattus norvegicus, UniProt P23977); details: for DAT/SERT ratio: (EC50 at DAT)^-1/(EC50 at SERT)^-1, higher value indicates greater DAT selectivity; for Efficacy to evoke release at DAT (of maximal release): rat brain synaptosomes
Chain of dopamine transporters (DAT) (P23977 whole entry): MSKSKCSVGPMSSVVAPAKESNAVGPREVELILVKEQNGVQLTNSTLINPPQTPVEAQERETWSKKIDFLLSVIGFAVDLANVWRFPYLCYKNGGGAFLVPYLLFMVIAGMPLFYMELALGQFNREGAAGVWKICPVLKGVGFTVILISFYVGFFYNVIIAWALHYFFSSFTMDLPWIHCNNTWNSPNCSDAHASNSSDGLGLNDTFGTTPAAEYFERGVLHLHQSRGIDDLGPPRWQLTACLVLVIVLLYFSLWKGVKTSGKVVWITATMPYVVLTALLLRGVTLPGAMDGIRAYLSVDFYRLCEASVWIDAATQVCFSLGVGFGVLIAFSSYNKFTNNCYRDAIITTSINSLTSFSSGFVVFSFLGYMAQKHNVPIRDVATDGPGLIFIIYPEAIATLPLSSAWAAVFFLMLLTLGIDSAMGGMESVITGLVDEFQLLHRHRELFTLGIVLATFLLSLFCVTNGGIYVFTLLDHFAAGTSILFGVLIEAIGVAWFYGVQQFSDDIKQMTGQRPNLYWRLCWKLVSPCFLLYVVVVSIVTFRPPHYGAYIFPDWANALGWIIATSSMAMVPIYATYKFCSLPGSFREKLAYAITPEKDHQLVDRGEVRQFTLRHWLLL

[2] = target: norepinephrine transporters (NET) (Rattus norvegicus, UniProt Q63380); details: rat brain synaptosomes
Chain of norepinephrine transporters (NET) (Q63380 1-617): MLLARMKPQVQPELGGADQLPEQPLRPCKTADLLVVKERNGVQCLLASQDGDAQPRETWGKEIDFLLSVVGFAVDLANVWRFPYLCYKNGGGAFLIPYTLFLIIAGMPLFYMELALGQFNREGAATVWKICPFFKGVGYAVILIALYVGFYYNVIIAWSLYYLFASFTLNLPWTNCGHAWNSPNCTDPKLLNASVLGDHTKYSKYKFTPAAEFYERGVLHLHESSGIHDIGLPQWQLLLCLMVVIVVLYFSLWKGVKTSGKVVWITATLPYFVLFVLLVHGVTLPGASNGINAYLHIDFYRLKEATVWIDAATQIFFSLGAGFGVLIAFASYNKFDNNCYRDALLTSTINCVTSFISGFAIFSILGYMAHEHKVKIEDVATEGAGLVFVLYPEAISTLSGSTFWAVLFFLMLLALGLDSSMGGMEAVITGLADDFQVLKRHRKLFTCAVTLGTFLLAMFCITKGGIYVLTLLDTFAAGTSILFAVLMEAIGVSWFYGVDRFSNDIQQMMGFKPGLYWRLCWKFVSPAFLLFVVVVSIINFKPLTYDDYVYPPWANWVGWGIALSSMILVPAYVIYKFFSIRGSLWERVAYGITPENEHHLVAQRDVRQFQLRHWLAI

Chain of 5-HT transporters (SERT) (P31652 whole entry): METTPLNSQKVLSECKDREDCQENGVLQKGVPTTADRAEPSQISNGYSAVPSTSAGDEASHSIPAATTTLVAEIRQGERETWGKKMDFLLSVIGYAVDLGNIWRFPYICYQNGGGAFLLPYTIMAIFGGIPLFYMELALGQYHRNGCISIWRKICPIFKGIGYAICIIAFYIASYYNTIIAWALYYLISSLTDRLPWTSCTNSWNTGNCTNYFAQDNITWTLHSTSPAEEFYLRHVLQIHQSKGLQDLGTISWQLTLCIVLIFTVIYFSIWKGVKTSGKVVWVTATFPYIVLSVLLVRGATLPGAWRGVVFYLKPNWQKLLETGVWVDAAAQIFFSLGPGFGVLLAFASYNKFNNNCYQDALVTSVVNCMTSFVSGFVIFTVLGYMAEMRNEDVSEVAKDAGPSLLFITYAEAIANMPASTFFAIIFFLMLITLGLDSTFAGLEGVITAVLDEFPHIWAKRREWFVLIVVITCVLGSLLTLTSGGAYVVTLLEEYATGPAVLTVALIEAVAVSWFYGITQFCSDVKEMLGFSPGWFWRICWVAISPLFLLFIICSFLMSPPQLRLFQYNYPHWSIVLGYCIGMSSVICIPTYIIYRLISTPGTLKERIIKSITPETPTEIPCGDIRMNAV

SMILES	Efficacy to evoke release at SERT (of maximal release) (5-HT transporters (SERT))	DAT/SERT ratio [1]	Efficacy to evoke release at DAT (of maximal release) [1]	Efficacy to evoke release at NET (of maximal release) [2]	EC50 (5-HT transporters (SERT)) [µM]	EC50 [1] [µM]
Cc1ccc([C@H]2OC(N)=N[C@H]2C)cc1 (racemic) [(±)-cis-4,4'-DMAR, (±)-cis-4-Methyl-5-(4-methylphenyl)-4,5-dihydrooxazol-2-amine]	fully efficacious	2	fully efficacious	fully efficacious		
C[C@@H]1N=C(N)O[C@@H]1c1ccccc1 (racemic) [(±)-cis-4-MAR, (±)-cis-4-methylaminorex]	fully efficacious	31	fully efficacious	fully efficacious		
NC1=NCC(c2ccccc2)O1 (stereo not drawn) [Aminorex, 5-phenyl-4,5-dihydrooxazol-2-amine]	fully efficacious	45	fully efficacious	fully efficacious	0.414 ± 0.078	0.0091 ± 0.0009
C[C@H](N)Cc1ccccc1 [d-Amphetamine]				fully efficacious		
